Source: patent publication US5753715A, “2-disubstituted cyclohexenyl and cyclohexyl antimicrobial agents” (Ortho Pharmaceutical Corporation, priority 1995, dated 1998)

Target: T1, Kinase A and SpoOF (Bacillus subtilis, UniProt P16497)
T1 sequence (P16497 1-606): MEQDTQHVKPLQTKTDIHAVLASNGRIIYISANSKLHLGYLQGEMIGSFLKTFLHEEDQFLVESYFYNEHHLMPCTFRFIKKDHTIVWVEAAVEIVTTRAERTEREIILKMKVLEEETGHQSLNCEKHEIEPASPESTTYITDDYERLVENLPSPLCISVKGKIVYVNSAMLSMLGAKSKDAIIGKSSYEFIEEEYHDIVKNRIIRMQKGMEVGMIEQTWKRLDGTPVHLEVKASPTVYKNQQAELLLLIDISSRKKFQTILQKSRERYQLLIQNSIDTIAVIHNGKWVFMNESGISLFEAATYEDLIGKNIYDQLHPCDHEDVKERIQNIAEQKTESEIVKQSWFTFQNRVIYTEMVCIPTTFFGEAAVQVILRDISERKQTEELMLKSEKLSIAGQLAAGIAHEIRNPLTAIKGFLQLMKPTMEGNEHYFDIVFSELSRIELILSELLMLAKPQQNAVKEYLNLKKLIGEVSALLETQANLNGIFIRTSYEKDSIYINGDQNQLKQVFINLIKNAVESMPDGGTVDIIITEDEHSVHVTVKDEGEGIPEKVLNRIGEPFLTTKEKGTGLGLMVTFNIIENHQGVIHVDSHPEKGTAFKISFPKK
Assay: Autophosphorylation of Kinase A and Transphosphorylation of SPoOF Assay
Assay type: biochemical
Settings: inhibition of Kinase A autophosphorylation / SpoOF transphosphorylation, [32P]ATP, gel, phosphoimager

SMILES	IC50 [mM]	IC min [mM]
N=C(N)NCc1ccc(OCCC2(Cc3cccc(Cl)c3)C=CCCC2)cc1 (stereo not drawn) [Compound 6]	35.8	–
Fc1ccc(C2(CCOc3ccc(CCCNCc4ccccc4)cc3)C=CCCC2)cc1 (stereo not drawn) [Compound 28]	–	> 1000
CNCCCc1cnc(NCCC2(Cc3ccccc3)C=CCCC2)nc1 (stereo not drawn) [Compound 48]	–	500
NCc1ccc(OCCC2(Cc3cccc(Cl)c3)C=CCCC2)cc1 (stereo not drawn) [Compound 5]	18.5	15.6
COc1ccc(CC2(CCOc3ccc(C(N)=O)cc3)C=CCCC2)cc1 (stereo not drawn) [Compound 51]	–	> 1000
NCc1ccccc1OCCC1(Cc2ccccc2Cl)C=CCCC1 (stereo not drawn) [Compound 55]	91.3	–
C1=CC(CCOc2ccc(CCNCCN3CCCC3)cc2)(Cc2ccccc2)CCC1 (stereo not drawn) [Compound 1]	210	62.5
N=C(N)NCCc1ccc(OCCC2(Cc3cccc(Cl)c3)C=CCCC2)cc1 (stereo not drawn) [Compound 45]	17.9	15.6
Clc1cccc(CC2(CCOc3ccc(CCNCCN4CCCC4)cc3)C=CCCC2)c1 (stereo not drawn) [Compound 40]	46.8	31.25
CNCCc1ccc(OCCCC2(Cc3ccccc3)C=CCCC2)cc1 (stereo not drawn) [Compound 30]	145	125
OCCNCCCc1ccc(OCCC2(c3ccc(F)cc3)C=CCCC2)cc1 (stereo not drawn) [Compound 25]	200	125
CC(C)NCCc1ccc(OCCC2(CCCc3ccccc3)CCCCC2)cc1 [Compound 14]	–	500
NCc1cccc(OCCC2(Cc3cc(Cl)cc(Cl)c3)C=CCCC2)c1 (stereo not drawn) [Compound 58]	74.8	–
O=C(O)CCc1ccc(OCCC2(c3ccc(F)cc3)C=CCCC2)cc1 (stereo not drawn) [Compound 12]	354	125
NCCCc1ccc(OCCC2(Cc3ccc(Cl)cc3)C=CCCC2)cc1 (stereo not drawn) [Compound 52]	174	–
CNCCCc1ccc(OCCC2(C(C)C)C=CCCC2)cc1 (stereo not drawn) [Compound 35]	468.4	125
COc1ccc(CC2(CCOc3ccc(CCCNCCN4CCCC4)cc3)C=CCCC2)cc1 (stereo not drawn) [Compound 44]	133	62.5
NCCCc1ccc(OCCC2(Cc3ccccc3)C=CCCC2)cc1 (stereo not drawn) [Compound 18]	261	125
NCCc1ccc(OCCC2(Cc3ccc([N+](=O)[O-])cc3)CCCCC2)cc1 [Compound 16]	43.5	15.6
C1=CC(CCOc2ccc(CCCNCCN3CCOCC3)cc2)(Cc2ccccc2)CCC1 (stereo not drawn) [Compound 21]	728	500
COc1cc(CN)ccc1OCCC1(Cc2ccccc2)C=CCCC1 (stereo not drawn) [Compound 9]	446	250
CC(C)C1(CCOc2ccc(CCN)cc2)C=CCCC1 (stereo not drawn) [Compound 22]	94.7	31.25
CCNCCc1ccc(NCCC2(Cc3ccccc3)C=CCCC2)cc1 (stereo not drawn) [Compound 10]	257	125
N=C(N)NCCCc1ccc(OCCC2(Cc3ccccc3)C=CCCC2)cc1 (stereo not drawn) [Compound 38]	164.1	125
NCCNCCc1ccc(OCCC2(Cc3cccc(Cl)c3)C=CCCC2)cc1 (stereo not drawn) [Compound 61]	94.6	62.5
